Test results from PubChem BioAssay (NCI).
“And” between values parts separate entries of the source, which are not always exact repeats. Equal entries are not always repeated.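 The compound was tested at five concentrations on cells cultured in 96-well plates, with a 48-hour exposure period. GI50 is the concentration that inhibits growth by half. TGI: total growth inhibition.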

Key:
Assay in all cases: inhibition of tumour cell growth, NCI panel, 48 h
786-0 renal = test system: 786-0 renal
CAKI-1 renal = test system: CAKI-1 renal
HCC-2998 colon = test system: HCC-2998 colon
HCT-15 colon = test system: HCT-15 colon
LOX IMVI melanoma = test system: LOX IMVI melanoma
RPMI-8226 leukemia = test system: RPMI-8226 leukemia
SNB-19 CNS = test system: SNB-19 CNS
SR leukemia = test system: SR leukemia
UACC-257 melanoma = test system: UACC-257 melanoma
UO-31 renal = test system: UO-31 renal

Compound | GI50 (786-0 renal) | TGI (786-0 renal) | GI50 (CAKI-1 renal) | TGI (CAKI-1 renal) | GI50 (HCC-2998 colon) | TGI (HCC-2998 colon) | GI50 (HCT-15 colon) | TGI (HCT-15 colon) | GI50 (LOX IMVI melanoma) | TGI (LOX IMVI melanoma) | GI50 (RPMI-8226 leukemia) | TGI (RPMI-8226 leukemia) | GI50 (SNB-19 CNS) | TGI (SNB-19 CNS) | GI50 (SR leukemia) | TGI (SR leukemia) | GI50 (UACC-257 melanoma) | TGI (UACC-257 melanoma) | GI50 (UO-31 renal) | TGI (UO-31 renal)
CNCCOC(=O)/C=C1\CC[C@H]2[C@@H]([C@@H](O)C(=O)[C@@H]3[C@]2(C)CC[C@H](O)[C@]3(C)C(=O)OC)[C@H]1C | 0.226 µM | 0.681 µM | 0.315 µM | 1.08 µM | 1.35 µM | 3.63 µM | 0.608 µM | 2.55 µM | 0.357 µM | 1.38 µM | 0.454 µM | 2.65 µM | 0.668 µM | 1.99 µM | 0.244 µM | 0.626 µM | 0.479 µM | 1.73 µM | 0.297 µM | 1.1 µM
CC(=O)ON1CCCC(P(=O)(OCCSC(=O)C(C)(C)C)OCCSC(=O)C(C)(C)C)C1=O (stereo not given) | 1.41 µM | 90.4 µM | 2.44 µM | > 100 µM | 1.42 µM | 12.4 µM | 0.973 µM | 76.1 µM | 1.22 µM | 95.5 µM | 1.45 µM | 11.3 µM | 1.76 µM | 21.9 µM | 0.571 µM | 64.2 µM | 6.9 µM | 81.1 µM | 0.413 µM | 11.3 µM
COc1cc(Cl)cc(-c2nn(-c3cccc(NC(=O)c4ccc(N5CCOCC5)c(C(F)(F)F)c4)c3)cc2-c2ccncc2)c1 | 3.23 µM | 29.8 µM | 4.4 µM | > 100 µM | 6.06 µM | 74.7 µM | 3.25 µM | > 100 µM | 15.8 µM | > 100 µM | 1.5 µM | > 100 µM | > 100 µM | > 100 µM | 3.06 µM | > 100 µM | 21.7 µM | 69.1 µM | 4.5 µM | > 100 µM
COCC(OC)C(CC=C(C#N)C#N)OC (stereo not given) |  | > 100 µM |  | > 100 µM |  | > 100 µM |  | > 100 µM |  | > 100 µM |  | > 100 µM |  | > 100 µM |  | > 100 µM |  | > 100 µM |  | > 100 µM
NNC(=O)CNc1cccc(Br)c1 |  | > 100 µM |  | > 100 µM |  | > 100 µM |  | > 100 µM |  | > 100 µM |  | > 100 µM |  | > 100 µM |  | > 100 µM |  | > 100 µM |  | > 100 µM
N#Cc1nn(-c2cc(=O)[nH]c3ccc(Cl)cc23)c(N)c1C#N | > 100 µM | > 100 µM | > 100 µM | > 100 µM | > 100 µM | > 100 µM | > 100 µM | > 100 µM | > 100 µM | > 100 µM | > 100 µM | > 100 µM | > 100 µM | > 100 µM | > 100 µM | > 100 µM | > 100 µM | > 100 µM | > 100 µM | > 100 µM
CCN1CCN(c2cc(C)c3cc(NC(=O)c4ccc(OC)c(OC)c4)ccc3n2)CC1 | 7.12 µM | > 55.3 µM | > 44.6 µM | > 100 µM | > 57.3 µM | > 100 µM | 3.02 µM | > 100 µM | 9.36 µM | 24.3 µM | 2.68 µM | 29.4 µM | > 61 µM | > 100 µM | 1.44 µM | > 30.5 µM | > 40.4 µM | > 58.9 µM | > 37.4 µM | > 73.2 µM
Cc1nnc(Nc2ccc(NC(=O)Nc3ccc(Cl)cc3)cc2)c2ccccc12 | 1.71 µM | 3.34 µM | 3.49 µM | 12.8 µM | 2.84 µM | 8.09 µM | 1.91 µM | 4.53 µM | 1.75 µM | 3.27 µM | 2.6 µM | 6.48 µM | 2.77 µM | 8.72 µM | 2.56 µM | 9.55 µM | 2.39 µM | 5.3 µM | 2.14 µM | 6.01 µM
CCOC(=O)N[C@H]1CCc2cc(OC)c(OC)c(OC)c2-c2ccc(SC)c(=O)cc21 |  | 45.7 µM and > 100 µM | < 0.0182 µM |  |  | > 69.6 µM |  | > 100 µM |  | > 100 µM |  | > 100 µM | < 0.01 µM | 91.7 µM and > 100 µM |  | > 100 µM | > 70.5 µM | > 100 µM | 0.254 µM | > 100 µM
NC1CCN(Cc2ccccc2)CC1 | > 100 µM | > 100 µM | > 100 µM | > 100 µM | > 100 µM | > 100 µM | > 100 µM | > 100 µM | > 100 µM | > 100 µM | > 100 µM | > 100 µM | > 100 µM | > 100 µM | > 100 µM | > 100 µM | > 100 µM | > 100 µM | > 100 µM | > 100 µM
COC(=O)/C(=C/c1ccc(OC)cc1)C(C(=O)O)=C1CCCC1 |  | > 100 µM |  | > 100 µM |  | > 100 µM |  | > 100 µM |  | > 100 µM |  | > 100 µM |  | > 100 µM |  | > 100 µM |  | > 100 µM |  | > 100 µM
O=C(/C=C/c1ccc[nH]1)c1ccc(-n2ccc(C(F)(F)F)n2)cc1 | 6.17 µM | > 100 µM | > 31.6 µM | > 100 µM | > 100 µM | > 100 µM | > 100 µM | > 100 µM | > 100 µM | > 100 µM | 0.436 µM | 8.15 µM | > 100 µM | > 100 µM | 9.15 µM | > 100 µM | > 100 µM | > 100 µM | 0.56 µM | 2.4 µM
CCOC(=O)N1CCC(N[C@@H]2c3cc4c(cc3C(c3cc(OC)c(O)c(OC)c3)C3C(=O)OC[C@@H]32)OCO4)CC1 (stereo not given in full) |  | 2.94 µM and 4.8 µM |  | 2.35 µM and 2.26 µM | 1.53 µM and 3.47 µM | 6.82 µM and 7.22 µM |  | 2.97 µM and 4.43 µM |  | 7.97 µM and 12.4 µM | 1.46 µM and 4.12 µM | 18.7 µM and > 25 µM |  | 7.1 µM and 6.95 µM |  | 3.21 µM and > 25 µM |  | 36.3 µM and > 25 µM |  | 3.21 µM and 4.14 µM
O=C(CC1C(=O)Nc2ccccc2S1=O)Nc1cc(Cl)ccc1Cl (stereo not given) |  | > 100 µM |  | > 100 µM |  | > 100 µM |  | > 100 µM |  | > 100 µM |  | > 100 µM |  | > 100 µM |  | > 100 µM |  | > 100 µM |  | > 100 µM
CN(C)C(=S)/N=c1\sn(C)/c(=N\C(=S)N(C)C)n1C |  | > 100 µM |  | > 100 µM |  | > 100 µM |  | > 100 µM |  | > 100 µM |  | > 100 µM |  | > 100 µM |  | > 100 µM |  | > 100 µM |  | > 100 µM
